PMC8919051, “Metabolome and Whole-Transcriptome Analyses Reveal the Molecular Mechanisms Underlying Hypoglycemic Nutrient Metabolites Biosynthesis in Cyclocarya paliurus Leaves During Different Harvest Stages” (Frontiers in Nutrition, 2022)

Target: α-amylase (EC 3.2.1.1)
Experiment: α-amylase activity kit, colorimetric at […] nm
Type: biochemical

Compound | IC50 [µM]
O=C(/C=C/c1ccc(O)c(O)c1)O[C@@H]1C[C@@](O)(C(=O)O)C[C@@H](O)[C@@H]1O [neochlorogenic acid] | 230
COc1cc(C(=O)O)ccc1O [vanillic acid] | 330
